According to patent US20240174603A1 (Rappta Therapeutics Oy, priority 2021, published 2024):

These compounds were tested on LNCaP cells (assay: LNCaP cell viability assay (MTS)). Conditions: Homo sapiens, LNCaP, 48 h, LNCaP cell line.
Format: cell-based
Protocol: LNCaP cell line was used for the cell viability assay. LNCaP cells were plated in 96-well plates at a density of 5000 cells per well. After 24 hours of plating, the cells were treated with increasing doses of compound (e.g., compounds 1-269) ranging from 1 μM to 80 μM. Relative cell numbers were analyzed after 48 hours using 3-(4,5-dimethylthiazol-2-yl)-5-(3-carboxymethoxyphenyl)-2-(4-sulfophenyl)-2H-tetrazolium (MTS) assay (Promega) according to the manufacturer's instructions.
The cell viability data was analyzed with GraphPad Prism software. The values were log transformed and analyzed with non-linear regression (curve-fit) using log(inhibitor) vs. response-variable slope (four parameters) and constraining the bottom to equal zero. Unless otherwise indicated, the GI50 values provided in Table 113 correspond to the LNCaP cell viability assays.

SMILES | GI50 [µM]
O=S(=O)(NCCNS(=O)(=O)c1cc(Br)ccc1Br)c1ccc(OC(F)(F)F)cc1 [Compound 3, 2,5-dibromo-N-(2-((4-(trifluoromethoxy)phenyl)sulfonamido)ethyl)benzenesulfonamide] | 24.6
CCCCC(NS(=O)(=O)c1ccc(OC(F)(F)F)cc1)C(=O)OC(C)(C)C (centres unmarked) [Compound 5, Tert-butyl 2-((4-(trifluoromethoxy)phenyl)sulfonamido)hexanoate] | 39.5
COC(=O)C[C@@H](Cc1ccccc1)NS(=O)(=O)c1ccc(OC(F)(F)F)cc1 [Compound 6, Methyl (R)-4-phenyl-3-((4-(trifluoromethoxy)phenyl)sulfonamido)butanoate] | 61.1
O=S(=O)(NC(CC(F)(F)F)c1ccccc1)c1ccc(OC(F)(F)F)cc1 (centres unmarked) [Compound 8, N-(3,3,3-trifluoro-1-phenylpropyl)-4-(trifluoromethoxy)benzenesulfonamide] | 38.1
Cc1cccc(CC(CO)NS(=O)(=O)c2ccc(OC(F)(F)F)cc2)c1 (centres unmarked) [Compound 9, N-(1-hydroxy-3-(m-tolyl)propan-2-yl)-4-(trifluoromethoxy)benzenesulfonamide] | 24.1
CC(C)CC(CCO)NS(=O)(=O)c1ccc(OC(F)(F)F)cc1 (centres unmarked) [Compound 10, N-(1-hydroxy-5-methylhexan-3-yl)-4-(trifluoromethoxy)benzenesulfonamide] | 5.47
CC(O)COc1ccccc1CNS(=O)(=O)c1ccc(OC(F)(F)F)cc1 (centres unmarked) [Compound 11, N-(2-(2-hydroxypropoxy)benzyl)-4-(trifluoromethoxy)benzenesulfonamide] | 30.9
CCOC(=O)C[C@@H](NS(=O)(=O)c1ccc(OC(F)(F)F)cc1)c1ccccc1Cl [Compound 14, Ethyl (R)-3-(2-chlorophenyl)-3-((4-(trifluoromethoxy)phenyl)sulfonamido)propanoate] | 51.9
CCc1ccc(C(NS(=O)(=O)c2ccc(OC(F)(F)F)cc2)C(C)(C)C)o1 (centres unmarked) [Compound 17, N-(1-(5-ethylfuran-2-yl)-2,2-dimethylpropyl)-4-(trifluoromethoxy)benzenesulfonamide] | 55.6
COc1ccc(C)cc1CC(NS(=O)(=O)c1ccc(OC(F)(F)F)cc1)C(C)C (centres unmarked) [Compound 18, N-(1-(2-methoxy-5-methylphenyl)-3-methylbutan-2-yl)-4-(trifluoromethoxy)benzenesulfonamide] | 76.7
CC(NS(=O)(=O)c1ccc(OC(F)(F)F)cc1)c1cc(F)ccc1N1CCC(O)CC1 (centres unmarked) [Compound 21, N-(1-(5-fluoro-2-(4-hydroxypiperidin-1-yl)phenyl)ethyl)-4-(trifluoromethoxy)benzenesulfonamide] | 46.8
CCOC(=O)CC(NS(=O)(=O)c1ccc(OC(F)(F)F)cc1)c1ccc(C)cc1 (centres unmarked) [Compound 24] | 44.2
COc1ccc(OC)c(CCCNS(=O)(=O)c2ccc(OC(F)(F)F)cc2)c1 [Compound 27, N-(3-(2,5-dimethoxyphenyl)propyl)-4-(trifluoromethoxy)benzenesulfonamide] | 40.2
CCOc1ccc(Cl)cc1CCNS(=O)(=O)c1ccc(OC(F)(F)F)cc1 [Compound 29, N-(5-chloro-2-ethoxyphenethyl)-4-(trifluoromethoxy)benzenesulfonamide] | 38.3
O=S(=O)(NCc1ccccc1N1CCCC1)c1ccc(OC(F)(F)F)cc1 [Compound 30, N-(2-(pyrrolidin-1-yl)benzyl)-4-(trifluoromethoxy)benzenesulfonamide] | 49.7
CC1CCN(C(CNS(=O)(=O)c2ccc(OC(F)(F)F)cc2)c2ccco2)CC1 (centres unmarked) [Compound 31, N-(2-(furan-2-yl)-2-(4-methylpiperidin-1-yl)ethyl)-4-(trifluoromethoxy)benzenesulfonamide] | 45.9
O=S(=O)(NC(c1ccc(F)c(C(F)(F)F)c1)C1CC1)c1ccc(OC(F)(F)F)cc1 (centres unmarked) [Compound 34, N-(cyclopropyl(4-fluoro-3-(trifluoromethyl)phenyl)methyl)-4-(trifluoromethoxy)benzenesulfonamide] | 40.1
COCCC(NS(=O)(=O)c1ccc(OC(F)(F)F)cc1)c1ccc(Cl)c(Cl)c1 (centres unmarked) [Compound 35, N-(1-(3,4-dichlorophenyl)-3-methoxypropyl)-4-(trifluoromethoxy)benzenesulfonamide] | 50.9
COC(=O)CC(NS(=O)(=O)c1ccc(OC(F)(F)F)cc1)C1CCCCC1 (centres unmarked) [Compound 37, Methyl 3-cyclohexyl-3-((4-(trifluoromethoxy)phenyl)sulfonamido)propanoate] | 60
COC(=O)CC(NS(=O)(=O)c1ccc(OC(F)(F)F)cc1)c1cccc(Br)c1 (centres unmarked) [Compound 38, Methyl 3-(3-bromophenyl)-3-((4-(trifluoromethoxy)phenyl)sulfonamido)propanoate] | 66.5
COC(=O)C[C@H](NS(=O)(=O)c1ccc(OC(F)(F)F)cc1)c1cc(Cl)cc(Cl)c1 [Compound 39, Methyl (S)-3-(3,5-dichlorophenyl)-3-((4-(trifluoromethoxy)phenyl)sulfonamido)propanoate] | 35.3
COC(=O)[C@H](Cc1ccc(Cl)c(Cl)c1)NS(=O)(=O)c1ccc(OC(F)(F)F)cc1 [Compound 40, Methyl (S)-3-(3,4-dichlorophenyl)-2-((4-(trifluoromethoxy)phenyl)sulfonamido)propanoate] | 57.2
O=S(=O)(NC(c1cccc(Cl)c1)C1CCCC1)c1ccc(OC(F)(F)F)cc1 (centres unmarked) [Compound 41, N-((3-chlorophenyl)(cyclopentyl)methyl)-4-(trifluoromethoxy)benzenesulfonamide] | 37.3
CCOC(=O)C(Cc1cc(Cl)sc1Cl)NS(=O)(=O)c1ccc(OC(F)(F)F)cc1 (centres unmarked) [Compound 42, Ethyl 3-(2,5-dichlorothiophen-3-yl)-2-((4-(trifluoromethoxy)phenyl)sulfonamido)propanoate] | 57.8
CCOC(=O)[C@@H](Cc1ccc(OC)cc1)NS(=O)(=O)c1ccc(OC(F)(F)F)cc1 [Compound 43, Ethyl (R)-3-(4-methoxyphenyl)-2-((4-(trifluoromethoxy)phenyl)sulfonamido)propanoate] | 72
O=S(=O)(NC(Cc1cccc(Br)c1)CC(F)(F)F)c1ccc(OC(F)(F)F)cc1 (centres unmarked) [Compound 44, N-(1-(3-bromophenyl)-4,4,4-trifluorobutan-2-yl)-4-(trifluoromethoxy)benzenesulfonamide] | 59

The remaining compounds from weak to strong by GI50, led by results:

GI50 [µM] | SMILES
75.6 | CCOC(=O)CC(NS(=O)(=O)c1ccc(OC(F)(F)F)cc1)c1ccc(OCC)cc1 (centres unmarked) [Compound 25]
73.4 | COc1cc(C2(CNS(=O)(=O)c3ccc(OC(F)(F)F)cc3)CCCC2)ccc1OC(F)F [Compound 33, N-((1-(4-(difluoromethoxy)-3-methoxyphenyl)cyclopentyl)methyl)-4-(trifluoromethoxy)benzenesulfonamide]
57.9 | CC[C@H](C)[C@H](NS(=O)(=O)c1ccc(OC(F)(F)F)cc1)C(=O)OC(C)(C)C [Compound 7, Tert-butyl ((4-(trifluoromethoxy)phenyl)sulfonyl)-L-isoleucinate]
55.8 | CCc1ccc(C(CNS(=O)(=O)c2ccc(OC(F)(F)F)cc2)N2CCCC2)cc1 (centres unmarked) [Compound 28, N-(2-(4-ethylphenyl)-2-(pyrrolidine-1-yl)ethyl)-4-(trifluoromethoxy)benzenesulfonamide]
54 | CCCC(NS(=O)(=O)c1ccc(OC(F)(F)F)cc1)C(=O)N(C)C1CCCCCC1 (centres unmarked) [Compound 4, N-cycloheptyl-N-methyl-2-((4-(trifluoromethoxy)phenyl)sulfonamido)pentanamide]
53.5 | CCOC(=O)C(CC1CC=CCC1)NS(=O)(=O)c1ccc(OC(F)(F)F)cc1 (centres unmarked) [Compound 13, Ethyl 3-(cyclohex-3-en-1-yl)-2-((4-(trifluoromethoxy)phenyl)sulfonamido)propanoate]
51.9 | O=S(=O)(NC(CC1CC1)c1ccccc1)c1ccc(OC(F)(F)F)cc1 (centres unmarked) [Compound 19, N-(2-cyclopropyl-1-phenylethyl)-4-(trifluoromethoxy)benzenesulfonamide]
50.9 | COC(c1ccccc1Cl)C(C)NS(=O)(=O)c1ccc(OC(F)(F)F)cc1 (centres unmarked) [Compound 20, N-(1-(2-chlorophenyl)-1-methoxypropan-2-yl)-4-(trifluoromethoxy)benzenesulfonamide]
49.7 | CCOC(=O)C(NS(=O)(=O)c1ccc(OC(F)(F)F)cc1)c1ccc(OC)c(Br)c1 (centres unmarked) [Compound 16, Ethyl 2-(3-bromo-4-methoxyphenyl)-2-((4-(trifluoromethoxy)phenyl)sulfonamido)acetate]
49.6 | CCOC(=O)C(Cc1cccc(Cl)c1)NS(=O)(=O)c1ccc(OC(F)(F)F)cc1 (centres unmarked) [Compound 15, Ethyl 3-(3-chlorophenyl)-2-((4-(trifluoromethoxy)phenyl)sulfonamido)propanoate]
43.1 | COC(=O)C(C)C(NS(=O)(=O)c1ccc(OC(F)(F)F)cc1)c1ccccc1 (centres unmarked) [Compound 23]
39.1 | COC(=O)CC(NS(=O)(=O)c1ccc(OC(F)(F)F)cc1)c1ccc(OC)c(Br)c1 (centres unmarked) [Compound 22]
34.7 | O=S(=O)(N[C@@H](CCO)c1ccccc1)c1ccc(OC(F)(F)F)cc1 [Compound 12, (S)—N-(3-hydroxy-1-phenylpropyl)-4-(trifluoromethoxy)benzenesulfonamide]
29.1 | O=S(=O)(NC(c1cccc(C(F)(F)F)c1)C1CCCCC1)c1ccc(OC(F)(F)F)cc1 (centres unmarked) [Compound 36, N-(cyclohexyl(3-(trifluoromethyl)phenyl)methyl)-4-(trifluoromethoxy)benzenesulfonamide]
28.9 | CC(C)CC(NS(=O)(=O)c1ccc(OC(F)(F)F)cc1)c1cccc(C#N)c1 (centres unmarked) [Compound 26, N-(1-(3-cyanophenyl)-3-methylbutyl)-4-(trifluoromethoxy)benzenesulfonamide]
